One data set deals with T1, citrate lyase (Homo sapiens, UniProt P53396).
T1 sequence (P53396 1-1101): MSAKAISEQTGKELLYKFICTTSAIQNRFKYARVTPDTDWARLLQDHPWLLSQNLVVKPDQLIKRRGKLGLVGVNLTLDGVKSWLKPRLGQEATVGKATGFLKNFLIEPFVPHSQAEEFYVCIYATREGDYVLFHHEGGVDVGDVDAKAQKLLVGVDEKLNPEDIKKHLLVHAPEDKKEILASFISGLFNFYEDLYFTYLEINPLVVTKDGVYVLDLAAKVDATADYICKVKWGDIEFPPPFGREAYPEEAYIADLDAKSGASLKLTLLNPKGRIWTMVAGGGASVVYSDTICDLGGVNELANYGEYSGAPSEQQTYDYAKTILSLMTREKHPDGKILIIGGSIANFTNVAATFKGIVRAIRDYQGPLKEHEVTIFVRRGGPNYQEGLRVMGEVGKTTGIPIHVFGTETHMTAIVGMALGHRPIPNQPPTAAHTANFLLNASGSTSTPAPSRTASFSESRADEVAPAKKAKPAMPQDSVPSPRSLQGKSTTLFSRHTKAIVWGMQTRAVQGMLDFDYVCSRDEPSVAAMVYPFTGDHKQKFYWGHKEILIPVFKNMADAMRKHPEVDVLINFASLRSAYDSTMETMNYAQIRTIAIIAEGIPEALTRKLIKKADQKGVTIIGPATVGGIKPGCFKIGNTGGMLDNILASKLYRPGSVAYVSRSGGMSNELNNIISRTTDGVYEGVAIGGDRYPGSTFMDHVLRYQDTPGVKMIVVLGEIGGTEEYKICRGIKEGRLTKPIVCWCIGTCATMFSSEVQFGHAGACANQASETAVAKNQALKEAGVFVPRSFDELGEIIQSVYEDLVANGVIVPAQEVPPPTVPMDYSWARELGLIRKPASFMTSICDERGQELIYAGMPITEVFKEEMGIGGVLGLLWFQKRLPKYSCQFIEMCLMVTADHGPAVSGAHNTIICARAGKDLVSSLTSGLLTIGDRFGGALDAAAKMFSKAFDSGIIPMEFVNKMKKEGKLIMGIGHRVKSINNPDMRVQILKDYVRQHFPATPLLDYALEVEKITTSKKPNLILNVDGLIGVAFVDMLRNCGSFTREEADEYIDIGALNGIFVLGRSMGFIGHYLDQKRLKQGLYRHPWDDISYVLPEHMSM
Conditions: cited from earlier work.

The nature of data set [1]: Hygroscopicity test: gravimetric moisture uptake on storage at 56% relative humidity, 25° C. The format is physicochemical. The settings on record: for moisture uptake: previously dried to constant weight; for weight gain (moisture uptake from the air): 25° C., granulated <0.8 mm, previously dried over phosphorus pentoxide, based on total sample weight, Citrate. The source says: In a preferred embodiment, L-carnitine, magnesium hydroxide and citric acid are mixed in stoichiometric amounts, i.e. in a molar ratio of approximately 1:1:1. The types of these substances are preferably sufficiently pure, i.e. approved for the manufacture of food products or the preparation of pharmaceuticals, as are described, for example, in the European Pharmacopoeia. Anhydrous types are expediently used. To avoid an unwanted salt loading, the pure L-carnitine is preferably added to the mixture as neutral […] salt. Compared with previous methods of preparation, the hygroscopicity of the complex salt L-carnitine-magnesium citrate prepared in this way is reduced further. For example, the moisture uptake, determined by gravimetry in the way familiar to the skilled worker, of solid carnitine-Mg citrate prepared by the method of the invention and previously dried to constant weight under oil-pump vacuum or over phosphorus pentoxide is not more than 7% by weight after 48 h at 56% relative humidity (rH). This figure is not exceeded even after storage for 330 h. Based on the amount of carnitine or carnitine derivative present in the mixture, referred to within the scope of the invention as carnitine content based on free base, this corresponds to a moisture uptake of not more than 40% by weight. It is preferred for at least 80% of the carnitine-Mg citrate, based on the carnitine content in the mixture, to be in the form of complex salt in the mixture of the invention.
The product mixtures from example 1 and 2 granulated to a particle size of <0.8 mm using a FREEWIT screening granulator are stored at a relative humidity of 56% at 25° C. under constant test conditions for the stated times. The sample was previously dried to constant weight over phosphorus pentoxide. The moisture uptake from the air is determined by gravimetry. The weight gain is stated in percent based on the total weight of the sample.

For data set [2] the following is noted: relative humidity 56%, storage for 1 week; cited from earlier work.
The nature of data set [3]: Storage stability in relation to rearrangement of HCA to the lactone, standard test conditions. The settings on record: compared with known HCA salts; standard test conditions customary in the pharmaceutical sector. Type of data set: physicochemical. The source says: The present invention further relates to carnitine-magnesium hydroxycitrate. This is a salt of low hygroscopicity and can be prepared by the present method through mixing magnesium hydroxide, hydroxycitric acid and carnitine or alkanoyl carnitine in the molar ratio 1:1:1. It is a neutral salt in the stoichiometric composition, in relation to the charge distribution and the ionizable functional groups. […] This involves a synergistic effect of the mixture in the form of a complex salt. Without wishing to be bound to the theory, it is possible that this effect is brought about by a better bioavailability of the complex salt. HCA is prone to spontaneous lactonization in aqueous solution and in the gastrointestinal tract. The complexation with Mg before preparation of a solution might have a stabilizing effect in relation to the unwanted rearrangement of the lactone and thus bring about much greater activity in cooperation with carnitine. […] It is also possible that a previously unrecognized stimulating effect in particular of magnesium, in the sense of that stated above concerning the mechanism of action of carnitine and hydroxycitrate, is involved. Allosterically regulated enzymes are often regulated by various factors such as, for example, also Mg cations. Magnesium is moreover an important cofactor for various enzymes or constituent of the holo enzyme. […]

Data set [4] can be described thus: Weight gain of previously dried mixture under standard conditions. Conditions: after 24 h under standard conditions. Type of data set: physicochemical. The method, then: The weight gain of the mixture of the invention which had previously been dried was, after 24 h under standard conditions, 0.82% by weight. At a relative humidity of 56%, the water uptake of the mixture determined by gravimetry was ≦10% by weight after 30 h, corresponding to about 30% by weight based on the carnitine content of the mixture.

Where [5] appears, read: storage time 4 h, 56% relative humidity.
The mark [6] stands for this setting: storage time 8 h, 56% relative humidity.
[7] abbreviates: storage time 24 h, 56% relative humidity.
Where [8] appears, read: storage time 36 h, 56% relative humidity.
Setting [9] is: storage time 48 h, 56% relative humidity.
Setting [10] is: storage time 336 h, 56% relative humidity.

Where two headings read alike, the source gives them in different places.

As for `O=C(O)CC(O)(C(=O)O)C(O)C(=O)O` (stereo not shown) [HCA, Hydroxycitric acid], at citrate lyase (fold higher than for citric acid), the “affinity of the enzyme relative to natural substrate citric acid” value is recorded as “more than 100 times”.
With `C[N+](C)(C)C[C@H](O)CC(=O)[O-].O=C([O-])CC(O)(CC(=O)[O-])C(=O)[O-].O=C([O-])CC(O)(CC(=O)[O-])C(=O)[O-].[Mg+2].[Mg+2].[Mg+2]` [carnitine-Mg citrate, L-carnitine-magnesium citrate], the “moisture uptake based on carnitine content (free base)” value in data set [1] (56% relative humidity, based on amount of carnitine in the mixture) was “not more than 40 % by weight”. Further, the moisture uptake result in data set [1] (after 48 h at 56% relative humidity) and in data set [1] (after storage for 330 h at 56% relative humidity) was “not more than 7 % by weight” each time.
As for `C[N+](C)(C)C[C@H](O)CC(=O)[O-].O=C([O-])CC(O)(CC(=O)[O-])C(=O)[O-].O=C([O-])CC(O)(CC(=O)[O-])C(=O)[O-].[Mg+2].[Mg+2].[Mg+2]` [example 1, L-Carnitine-Magnesium Citrate], the “weight gain (moisture uptake from the air)” value is 2.0 % by weight in data set [1] (setting [5]); 2.2 % by weight in data set [1] (setting [6]); 4.6 % by weight in data set [1] (setting [7]); 4.4 % by weight in data set [1] (setting [8]); 5.2 % by weight in data set [1] (setting [9]); 5.1 % by weight in data set [1] (setting [10]).
Regarding `C[N+](C)(C)C[C@H](O)CC(=O)[O-].O=C([O-])CC(O)(CC(=O)[O-])C(=O)[O-].O=C([O-])CC(O)(CC(=O)[O-])C(=O)[O-].[Mg+2].[Mg+2].[Mg+2]` [example 2, L-Carnitine-Magnesium Citrate], the “weight gain (moisture uptake from the air)” value is listed as 2.7 % by weight in data set [1] (setting [5]); 3.0 % by weight in data set [1] (setting [6]); 5.4 % by weight in data set [1] (setting [7]); 5.5 % by weight in data set [1] (setting [8]); 6.4 % by weight in data set [1] (setting [9]); 6.5 % by weight in data set [1] (setting [10]).
For `O=C1C[C@@](O)(C(=O)O)[C@@H](C(=O)O)O1` [lactone derivative], the “affinity of the enzyme compared with HCA” value on citrate lyase (by comparison with HCA) was “clear lower affinity”.
With `C[N+](C)(C)C[C@H](O)CC(=O)[O-].O=C([O-])CC(O)(CC(=O)[O-])C(=O)[O-].O=C([O-])CC(O)(CC(=O)[O-])C(=O)[O-].[Mg+2].[Mg+2].[Mg+2]` [reference, L-carnitine-magnesium citrate, reference compound], the “weight gain (moisture uptake from the air)” value in data set [1] (setting [5]) was 5.1 % by weight; in data set [1] (setting [6]), 9.1 % by weight; in data set [1] (setting [7]), 18.1 % by weight; in data set [1] (setting [8]) it was 17.6 % by weight; in data set [1] (setting [9]) it was 20.4 % by weight; in data set [1] (setting [10]), 15.6 % by weight. Further, the water uptake in data set [2] was 21 % by weight.
Regarding “L-Carnitine-Magnesium (−)-Hydroxycitrate [Example 4]”, the “water uptake based on the carnitine content of the mixture” value in data set [1] (after 30 h at relative humidity 56%) was “about 30 % by weight”. Also, the water uptake in data set [1] (after 30 h at relative humidity 56%, gravimetry) is on record as at most 10 % by weight. Moreover, in data set [3], the “storage stability in relation to rearrangement of HCA to the lactone” value is “improved storage stability”. Besides, the weight gain in data set [4] came to 0.82 % by weight.
